Results taken from PubChem BioAssay AID256 (DTP/NCI, 2004).
Several values for one entry are separate records, joined by “and”; a condition that tells them apart may be missing. Identical values can stand only once. Toxic doses and inconclusive results are not listed. The calls were made as follows: active = survival T/C of 150% or more; inactive = T/C below 125% in these data.

Test system: CD2F1 mice, L1210 leukemia ip, survival T/C
Test: NCI In Vivo Anticancer Drug Screen. Data for tumor model L1210 Leukemia (intraperitoneal) in CD2F1 (CDF1) mice
Details: higher = longer survival
Procedure, shortened: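 Activity against a transplanted murine tumor was judged by comparing the compound group with a vehicle group. The outcome in the treated animals was divided by that in the controls.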

[1] = endpoint: mean survival time, dose: 100.0 mg/kg/injection, schedule: Q04DX003 (ip), vehicle: saline
[2] = endpoint: mean survival time, dose: 50.0 mg/kg/injection, schedule: Q01DX009 (ip), vehicle: saline
[3] = endpoint: mean survival time, dose: 50.0 mg/kg/injection, schedule: Q04DX003 (ip), vehicle: saline
[4] = endpoint: mean survival time, dose: 100.0 mg/kg/injection, schedule: Q01DX001 (ip), vehicle: saline
[5] = endpoint: mean survival time, dose: 100.0 mg/kg/injection, schedule: Q01DX009 (ip), vehicle: saline
[6] = endpoint: mean survival time, dose: 100.0 mg/kg/injection, schedule: Q04DX003 (ip), vehicle: saline with Tween-80
[7] = endpoint: mean survival time, dose: 200.0 mg/kg/injection, schedule: Q04DX003 (ip), vehicle: saline with Tween-80
[8] = endpoint: mean survival time, dose: 400.0 mg/kg/injection, schedule: Q04DX003 (ip), vehicle: saline with Tween-80
[9] = endpoint: mean survival time, dose: 12.5 mg/kg/injection, schedule: Q01DX009 (ip), vehicle: saline
[10] = endpoint: mean survival time, dose: 25.0 mg/kg/injection, schedule: Q01DX009 (ip), vehicle: saline
[11] = endpoint: mean survival time, dose: 100.0 mg/kg/injection, schedule: Q04DX002 (ip), vehicle: saline with Tween-80
[12] = endpoint: mean survival time, dose: 100.0 mg/kg/injection, schedule: Q01DX009 (ip), vehicle: saline with Tween-80
[13] = endpoint: mean survival time, dose: 200.0 mg/kg/injection, schedule: Q01DX009 (ip), vehicle: saline with Tween-80
[14] = endpoint: mean survival time, dose: 400.0 mg/kg/injection, schedule: Q01DX009 (ip), vehicle: saline with Tween-80
[15] = endpoint: mean survival time, dose: 100.0 mg/kg/injection, schedule: Q01DX001 (ip), vehicle: saline with Tween-80
[16] = endpoint: mean survival time, dose: 200.0 mg/kg/injection, schedule: Q01DX001 (ip), vehicle: saline with Tween-80
[17] = endpoint: mean survival time, dose: 200.0 mg/kg/injection, schedule: Q04DX002 (ip), vehicle: saline with Tween-80
[18] = endpoint: mean survival time, dose: 400.0 mg/kg/injection, schedule: Q01DX001 (ip), vehicle: saline with Tween-80
[19] = endpoint: mean survival time, dose: 400.0 mg/kg/injection, schedule: Q04DX002 (ip), vehicle: saline with Tween-80
[20] = endpoint: mean survival time, dose: 25.0 mg/kg/injection, schedule: Q04DX003 (ip), vehicle: saline

Measured: T/C

O=[N+]([O-])CC(OCCO)C(Cl)(Cl)Cl (configuration not stated)
inactive: endpoint: mean survival time, dose: 6.25 mg/kg/injection, schedule: Q01DX009 (ip), vehicle: acetone 97 % of control | endpoint: mean survival time, dose: 12.5 mg/kg/injection, schedule: Q01DX009 (ip), vehicle: acetone 102 % of control | endpoint: mean survival time, dose: 12.5 mg/kg/injection, schedule: Q04DX003 (ip), vehicle: acetone 90 % of control | endpoint: mean survival time, dose: 25.0 mg/kg/injection, schedule: Q01DX009 (ip), vehicle: acetone 97 % of control | endpoint: mean survival time, dose: 25.0 mg/kg/injection, schedule: Q04DX003 (ip), vehicle: acetone 87 % of control

Nc1nc(N)c2[nH]c(-c3ccccc3[N+](=O)[O-])nc2n1
inactive: endpoint: mean survival time, dose: 12.5 mg/kg/injection, schedule: Q01DX005 (ip), vehicle: water 96 % of control | endpoint: mean survival time, dose: 25.0 mg/kg/injection, schedule: Q01DX005 (ip), vehicle: water 89 % of control | endpoint: mean survival time, dose: 50.0 mg/kg/injection, schedule: Q01DX005 (ip), vehicle: water 87 % of control | endpoint: mean survival time, dose: 100.0 mg/kg/injection, schedule: Q01DX005 (ip), vehicle: water 96 % of control | endpoint: mean survival time, dose: 200.0 mg/kg/injection, schedule: Q01DX005 (ip), vehicle: water 96 % of control

Cc1c([O-])[n+](Cc2ccccc2)nn1C
inactive: endpoint: mean survival time, dose: 12.5 mg/kg/injection, schedule: Q01DX009 (ip), vehicle: water 97 % of control | endpoint: mean survival time, dose: 25.0 mg/kg/injection, schedule: Q01DX009 (ip), vehicle: water 98 % of control | endpoint: mean survival time, dose: 50.0 mg/kg/injection, schedule: Q01DX009 (ip), vehicle: water 95 % of control | endpoint: mean survival time, dose: 100.0 mg/kg/injection, schedule: Q01DX009 (ip), vehicle: water 97 % of control | endpoint: mean survival time, dose: 200.0 mg/kg/injection, schedule: Q01DX009 (ip), vehicle: water 93 % of control

CN(CC(=O)C(C)(C)C)C1CCCCC1
inactive: [1] 91 % of control

COc1ccc(Cl)cc1Cn1ccnc1
inactive: endpoint: mean survival time, dose: 50.0 mg/kg/injection, schedule: Q01DX001 (ip), vehicle: saline 104 % of control | [2] 115 % of control and 102 % of control | [3] 107 % of control | [4] 107 % of control | [5] 118 % of control and 107 % of control | endpoint: mean survival time, dose: 100.0 mg/kg/injection, schedule: Q04DX002 (ip), vehicle: saline 115 % of control and 100 % of control | [1] 115 % of control | endpoint: mean survival time, dose: 200.0 mg/kg/injection, schedule: Q04DX002 (ip), vehicle: saline 117 % of control and 109 % of control

O=C(NO)Nc1ccc(Cl)cc1
inactive: endpoint: mean survival time, dose: 8.0 mg/kg/injection, schedule: Q03HX024 (ip), vehicle: other 95 % of control | endpoint: mean survival time, dose: 16.0 mg/kg/injection, schedule: Q03HX024 (ip), vehicle: other 92 % of control | endpoint: mean survival time, dose: 32.0 mg/kg/injection, schedule: Q03HX024 (ip), vehicle: other 95 % of control | endpoint: mean survival time, dose: 62.0 mg/kg/injection, schedule: Q03HX024 (ip), vehicle: saline with Tween-80 106 % of control | endpoint: mean survival time, dose: 64.0 mg/kg/injection, schedule: Q03HX024 (ip), vehicle: other 93 % of control | endpoint: mean survival time, dose: 93.0 mg/kg/injection, schedule: Q03HX024 (ip), vehicle: saline with Tween-80 100 % of control | [6] 97 % of control | endpoint: mean survival time, dose: 128.0 mg/kg/injection, schedule: Q03HX024 (ip), vehicle: other 96 % of control | [7] 100 % of control | [8] 95 % of control

Nn1[nH]c(=O)c2nc[nH]c2c1=O
inactive: endpoint: median survival time, dose: 15.0 mg/kg/injection, schedule: Q01DX005 (ip), vehicle: saline with Tween-80 103 % of control | endpoint: median survival time, dose: 30.0 mg/kg/injection, schedule: Q01DX005 (ip), vehicle: saline with Tween-80 111 % of control | endpoint: median survival time, dose: 60.0 mg/kg/injection, schedule: Q01DX005 (ip), vehicle: saline with Tween-80 102 % of control

O=C(O)C1(Br)CCC1
inactive: endpoint: mean survival time, dose: 12.5 mg/kg/injection, schedule: Q01DX005 (ip), vehicle: saline with Tween-80 89 % of control | [9] 100 % of control | endpoint: mean survival time, dose: 25.0 mg/kg/injection, schedule: Q01DX005 (ip), vehicle: saline with Tween-80 101 % of control | [10] 89 % of control | endpoint: mean survival time, dose: 50.0 mg/kg/injection, schedule: Q01DX005 (ip), vehicle: saline with Tween-80 108 % of control | [2] 93 % of control | endpoint: mean survival time, dose: 50.0 mg/kg/injection, schedule: Q04DX002 (ip), vehicle: saline with Tween-80 97 % of control | endpoint: mean survival time, dose: 100.0 mg/kg/injection, schedule: Q01DX005 (ip), vehicle: saline with Tween-80 97 % of control | [5] 89 % of control | [11] 94 % of control

Cc1ccc(-n2c(O)c(C=N)c(=O)[nH]c2=O)cc1
inactive: [6] 101 % of control | [7] 97 % of control | [8] 103 % of control

O=C(c1ccccc1)c1ccc(-c2ccccc2)c(=O)o1
inactive: [12] 95 % of control | [6] 100 % of control | [13] 95 % of control | [7] 98 % of control | [14] 92 % of control | [8] 102 % of control

CCCCN(C)N=Nc1cccnc1
inactive: endpoint: mean survival time, dose: 13.0 mg/kg/injection, schedule: Q01DX009 (ip), vehicle: saline 90 % of control | endpoint: mean survival time, dose: 19.0 mg/kg/injection, schedule: Q01DX009 (ip), vehicle: saline 109 % of control | endpoint: mean survival time, dose: 28.0 mg/kg/injection, schedule: Q01DX009 (ip), vehicle: saline 109 % of control | endpoint: mean survival time, dose: 42.0 mg/kg/injection, schedule: Q01DX009 (ip), vehicle: saline 92 % of control

COc1cc([N+](=O)[O-])ccc1NC(=O)N(c1ccccc1)C(C)C
inactive: [15] 101 % of control and 112 % of control | [12] 98 % of control and 105 % of control | [11] 96 % of control | [6] 101 % of control | [16] 101 % of control and 104 % of control | [13] 94 % of control and 95 % of control | [17] 98 % of control | [7] 95 % of control | [18] 95 % of control and 97 % of control | [14] 94 % of control and 101 % of control | [19] 98 % of control | [8] 103 % of control

CCOC(=O)c1cnc[nH]1
inactive: [11] 103 % of control | [17] 95 % of control | [19] 103 % of control

C=CCOCC(O)CN(CCC)CCC (configuration not stated)
inactive: [9] 103 % of control | [10] 95 % of control | [20] 93 % of control | [2] 103 % of control | [3] 89 % of control | [6] 97 % of control

CC1(C)CC(=O)C2(C)CCC(=O)C=C2C1 (configuration not stated)
inactive: [6] 101 % of control | [7] 100 % of control | [8] 100 % of control

O=C(Sc1cccc2ccccc12)c1ccc([N+](=O)[O-])cc1
inactive: [15] 105 % of control | [16] 92 % of control | [18] 101 % of control

COc1cc(OC)c(NC(=O)OCCOc2ccc(Cl)cc2Cl)cc1Cl
inactive: endpoint: mean survival time, dose: 50.0 mg/kg/injection, schedule: Q01DX009 (ip), vehicle: saline with Tween-80 92 % of control | [12] 88 % of control

OC1C(O)C(O)C(O)C(O)C1O (configuration not stated)
inactive: [5] 104 % of control | endpoint: mean survival time, dose: 200.0 mg/kg/injection, schedule: Q01DX009 (ip), vehicle: saline 94 % of control | endpoint: mean survival time, dose: 400.0 mg/kg/injection, schedule: Q01DX009 (ip), vehicle: saline 94 % of control

Nc1ncnc(N)c1NC(=O)c1ccc(OCCOc2ccccc2)c(Cl)c1
inactive: [7] 88 % of control

COC/C(=N/Nc1ccc([N+](=O)[O-])cc1[N+](=O)[O-])c1ccccc1
inactive: [6] 102 % of control | [7] 108 % of control | [8] 100 % of control

OC[C@@H]1CCCN2CCCC[C@H]12
inactive: [20] 100 % of control | [3] 107 % of control | [1] 105 % of control

N#C/C(=C\C1CCC2OCOC2C1)C1CCC([N+](=O)[O-])CC1 (configuration not stated)
inactive: [11] 97 % of control | [17] 87 % of control | [19] 91 % of control

C=CC1C2C=CC(CC2)C1O (configuration not stated)
inactive: [6] 98 % of control | [7] 101 % of control | [8] 104 % of control

C/C=C/CNc1ccc(C)cc1
inactive: endpoint: mean survival time, dose: 66.0 mg/kg/injection, schedule: Q01DX009 (ip), vehicle: saline with Tween-80 98 % of control | [12] 100 % of control | [6] 103 % of control | endpoint: mean survival time, dose: 150.0 mg/kg/injection, schedule: Q01DX009 (ip), vehicle: saline with Tween-80 102 % of control

CC(C)(C)CC(C)(C)c1ccc(OCCOc2ccc(S(=O)(=O)O)cc2[N+](=O)[O-])cc1
inactive: [4] 102 % of control | endpoint: mean survival time, dose: 200.0 mg/kg/injection, schedule: Q01DX001 (ip), vehicle: saline 102 % of control | endpoint: mean survival time, dose: 400.0 mg/kg/injection, schedule: Q01DX001 (ip), vehicle: saline 98 % of control
